Key:
Format in all cases: cell-based, human
[1] = test system: A 204 rhabdomyosarcoma (A cells); assay: PIT method in vitro cell growth inhibition, A 204; settings: amount which inhibits 50% of the cell growth; A 204 cells
Method: (§1) The tests were carried out according to the method of R.van Lambalgen en P. Lelieveld, The PIT method: an automated in vitro technique for drug toxicity testing. Invest.
(§2) The ID50 values in ng/ml for the above compounds were determined according to the above mentioned procedure of van Lambalgen and Lelieveld.

[2] = test system: WiDr colon tumor cells (W cells); assay: PIT method in vitro cell growth inhibition, WiDr; settings: amount which inhibits 50% of the cell growth
Method: as §1, §2

[3] = test system: MCF-7 mammary carcinoma (M cells); assay: PIT method in vitro cell growth inhibition, MCF-7; settings: amount which inhibits 50% of the cell growth; MCF-7 cells
Method: as §1, §2

[4] = test system: T24 bladder carcinoma (T cells); assay: PIT method in vitro cell growth inhibition, T24; settings: amount which inhibits 50% of the cell growth
Method: as §1, §2

[5] = test system: IgR-37 melanoma (Z cells); assay: PIT method in vitro cell growth inhibition, IgR-37; settings: amount which inhibits 50% of the cell growth; IgR-37 cells
Method: as §1, §2

For `N.N.[Cl][Pt][Cl]` [cis platium, cis-(NH3)2PtCl2], the “ID50 values in ng/ml A 204” value [1] was 871 ng/mL, the “ID50 values in ng/ml WiDr” value [2] was 624 ng/mL and the “ID50 values in ng/ml MCF-7” value [3] was 850 ng/mL. For the same compound, the “ID50 values in ng/ml T24” value [4] was 268 ng/mL and the “ID50 values in ng/ml IgR-37” value [5] was 878 ng/mL.
